Measured values published in patent US10828436B2, “Administering the noble gas argon during cardiopulmonary resuscitation” (Vanderbilt University, priority 2016, dated 2020).

What was measured:
[1] = system: pig model of cardiac arrest; experiment: Pig model of cardiac arrest and CPR with Argon/O2 given during CPR before ROSC; type: in vivo
Procedure: Argon treatment led to higher systemic pulse pressures (arterial pressure during compression minus pressure during decompression), a lower number of defibrillation attempts and epinephrine requirements to achieve ROSC, a higher ROSC rate, lower lactic acidosis upon ROSC and lower cardiac injury markers (CK-MB and Troponin I) 6 hours after ROSC.
In one example, in-vivo experiments included a systematic study of the effect of Argon administered during CPR in a pig model of cardiac arrest on cardiac and neurological function, histological and other molecular effects after ROSC including 24- or 48 hr survival studies. […] Other examples include cell culture (in vitro) and isolated heart (ex vivo) experiments. The in vitro experiments include a systematic study of the effect of Argon administered on reoxygenation after prolonged hypoxia on markers of cellular injury and cell death in cardiomycytes and neuronal cell cultures. The ex vivo experiments include a systematic study of the effect of Argon administered on reperfusion after global coronary ischemia on coronary and myocardial function and infarct size in rat isolated hearts. […]

[2] = system: human cardiomyocytes; experiment: Hypoxia/reoxygenation in isolated cells, LDH injury marker; type: cell-based; conditions: Argon for 10 min or 30 min upon reoxygenation after hypoxia, vs control HR with nitrogen
Procedure: (§1) These experiments show no evidence that Argon, given for 10 min or 30 min upon reoxygenation (R) after hypoxia (H), directly improves the cellular injury marker lactate dehydrogenase (LDH) compared to control HR with nitrogen.
(§2) In one example, in-vivo experiments included a systematic study of the effect of Argon administered during CPR in a pig model of cardiac arrest on cardiac and neurological function, histological and other molecular effects after ROSC including 24- or 48 hr survival studies. […] Other examples include cell culture (in vitro) and isolated heart (ex vivo) experiments. The in vitro experiments include a systematic study of the effect of Argon administered on reoxygenation after prolonged hypoxia on markers of cellular injury and cell death in cardiomycytes and neuronal cell cultures. The ex vivo experiments include a systematic study of the effect of Argon administered on reperfusion after global coronary ischemia on coronary and myocardial function and infarct size in rat isolated hearts.

[3] = system: coronary artery endothelial cells; experiment: as above; type: cell-based, human; conditions: Argon for 10 min or 30 min upon reoxygenation after hypoxia, vs control HR with nitrogen
Procedure: as §1

[4] = system: rat isolated hearts; experiment: Rat isolated hearts, 30 min global no-flow ischemia and 120 min reperfusion; conditions: for defibrillation by lidocaine administration required to convert back to sinus rhythm: vs control hearts, P<0.05
Text: as §2

[5] = system: rat isolated lungs; experiment: Rat isolated lungs, pulmonary vascular resistance under different gas mixtures
Procedure: Rat isolated lungs ventilated with either 65% N2 or 65% Argon plus 30% O2 and 5% CO2 and perfused at a rate of 40 mL/kg body weight with physiological salt solution plus 4% albumin via cannulas placed into the pulmonary artery (PA) and left atrium. PA pressure is recorded throughout the experiment and analyzed to determine the effect of different gas mixtures on the pulmonary vascular resistance. Argon led to a reversible 28% drop in pulmonary perfusion pressure at constant flow compared to ventilation with Nitrogen before and after. P<0.05*vs Nitrogen, † vs Argon.

[6] = gas mixture given during CPR, pigs
[7] = 65% Argon for 10 or 120 min of reperfusion vs 65% Nitrogen

## [Ar] [Argon, argon]
[1]; CPR with 70% Argon, compared to control animals without Argon during CPR, in words
  outcome parameters: much improved
[1]; during CPR, vs Nitrogen/O2, in words
  systemic pulse pressures (arterial pressure during compression minus pressure during decompression): higher
[1]; [6]
  Arterial pH upon ROSC: 7.27 ± 0.05
  CK-MB 6 hrs after ROSC: 15.2 ± 4.3 ng/mL
  Epinephrine dose to achieve ROSC: 0.7 ± 0.2 mg
  Lactate upon ROSC: 6.8 ± 0.7 mEq
  Number of defibrillations to achieve ROSC: 2.4 ± 1.0 n
  Pulse pressure at 3 min CPR: 62.3 ± 3.7 mmHg
  ROSC: 100%
  Troponin I 6 hrs after ROSC: 6.8 ± 4.7 ng/mL
[1]; vs Nitrogen/O2, in words
  ROSC rate: higher
  cardiac injury markers (CK-MB and Troponin I) 6 hours after ROSC: lower
  epinephrine requirements to achieve ROSC: lower
  lactic acidosis upon ROSC: lower
  number of defibrillation attempts to achieve ROSC: lower
[1]; vs Nitrogen/O2, in words, listed as 70% Argon
  number of defibrillation attempts to achieve ROSC: less
[2]
  improvement of cellular injury marker lactate dehydrogenase (LDH): no evidence
[3]
  improvement of cellular injury marker lactate dehydrogenase (LDH): no evidence
[4]; [7]
  coronary or myocardial function (diastolic and developed left ventricular pressure, coronary flow): no evidence of improved
  infarct size: no evidence of improved
[4]
  defibrillation by lidocaine administration required to convert back to sinus rhythm: significantly less
[4]; listed as 70% Argon
  defibrillation by lidocaine administration required to convert back to sinus rhythm: less
[5]; 65% Argon plus 30% O2 and 5% CO2, reversible, vs ventilation with Nitrogen before and after
  drop in pulmonary perfusion pressure at constant flow: 28%
[5]; isolated lungs, in words
  pulmonary artery pressure at constant flow: lower
